Patent US20060099682A1, “Human vanilloid receptors and their uses” (Glaxo Group Limited, priority 1998, published 2006)

Legend:
Type in all cases: cell-based
rat VR1 = biological target: T1, rat VR1 (Rattus norvegicus, UniProt O35433); test: FLIPR calcium assay (fluo3-AM) with HEK293 cells stably expressing rat VR1
T1 construct: expressed in transfected cells
Description: Intracellular calcium is monitored with the calcium sensitive dye, fluo3-AM. HEK293 cells stably expressing rat VR1 were plated into a 96 well, poly-l-lysine treated FLIPR plate at 3×10^4 cells per well. On the following day, the plate was processed for FLIPR. FBP buffer was prepared (15 μM Probenecid (calcium ATPase pump blocker) in 1× FLIPR buffer (145 mM NaCl, 5 mM KCl, 1 mM MgCl2, 2 mM CaCl2, 10 mM glucose, 20 mM Hepes). FBP buffer pH was then adjusted to 7.4 with NaOH. 400 μl DMSO was added to a vial of fluo3-AM (Cambridge Bioscience, F-1241). The fluo3-AM solution was incubated at 37° C. for 10 min and vortexed. LOAD was prepared by adding 20 μl of fluo3-AM solution and 20 μl 20% pleuronic F-127 in DMSO (Cambridge Bioscience, P-3000) into 10 ml FBP. The 96 well plate containing cells was flicked off to remove cell medium. 100 μl LOAD was added per well. Cells were then incubated at 37° C. for 60 minutes. Capsaicin (a rVR1 agonist) and capsazepine (CPZ, a rVR1 antagonist) were prepared at 10× the desired final assay concentrations in FBP. The plate was flicked to remove LOAD from cells, and 180 μl FBP was added per well. […] Cells were monitored for 70 seconds after agonist addition. The FLIPR traces (fluorescence change (counts) versus time (seconds)) were produced for each well. […] The plate was incubated for 15 minutes at room temperature prior reading in the FLIPR.

hVR1 [1] = biological target: T2, hVR1 (Homo sapiens, UniProt Q8NER1, M315I/T469I); test: Whole-cell patch clamp electrophysiology of human VR-1 channels transiently expressed in HEK293T cells; set-up: pClN5-new (B) with the full length hVR1 gene cloned via NotI and EcoRI restriction sites; expressed in transfected cells; host or cells: HEK293T
Description: The activation of human VR-1 channels transiently expressed in HEK293T cells by capsaicin was investigated. Cells grown on poly-L-lysine-coated glass coverslips were placed in a recording chamber (0.5 ml) and superfused with extracellular solution (2 ml min^−1). The extracellular solution contained: NaCl (140 mM), KCl (5 mM), MgCl2 (2 mM), CaCl2 (2 mM), 4-(2-hydroxethyl)-1-piperazineethanesulphonic acid (HEPES, 10 mM) and glucose (10 mM). The pH was adjusted to 7.4 with NaOH and osmolarity ranged from 310-320 mOsm I^−1. Patch pipettes (borosilicate glass) were pulled using a Sutter P-97 electrode puller. The pipettes were filled with an internal solution consisting of: CsCl (140 mM), ethylene glycol-bis(β-aminoethyl ether) N,N,N′,N′-tetra acetic acid Cs salt (Cs-EGTA, 5 mM) and HEPES (10 mM). The pH was adjusted to 7.25 using CsOH and the osmolarity ranged from 275-290 mOsm. When filled with this internal solution, patch electrodes had resistances of 2-5 MΩ. Currents were recorded using standard whole-cell voltage clamp recording techniques (31) at room temperature (21-23° C.) using an Axopatch 200A amplifier and signals were sampled at 2 or 0.1 kHz. The majority of series resistance errors (80-85%) were minimized with compensation circuitry. Membrane potentials were not corrected for junction potentials (<4 mV). Voltage pulses and data collection were performed on-line using pClamp8 software (Axon Instruments) interfaced with amplifiers. Membrane potentials were maintained at −60 mV between protocols.
Capsaicin or capsazepine (CPZ) were applied, using a ‘fast-flow sytem’, directly onto the recording cell (<1 s to equilibrate). […]

hVR1 [2] = biological target: T2, hVR1; test: Calcium imaging (fura2-AM) with HEK293 cells expressing hVR1; set-up: pClN5-new (B) with the full length hVR1 gene cloned via NotI and EcoRI restriction sites; expressed in transfected cells; host or cells: HEK293; details: 37° C.
Description: HEK293 cells expressing hVR1 transiently or stably, were plated onto poly-l-lysine coated cover slips at 1×10^5 cells per well. They were analysed on the following day by calcium imaging (QuantiCell 700, Applied Imaging). On the day of experiment, WASH buffer was prepared by adding CaCl2 to extracellular medium (ECM) to a final concentration of 2 mM, (ECM contains 125 mM NaCl, 5 mM KCl, 2 mM MgCl2, 0.5 mM NaH2PO4, 5 mM NaHCO3, 10 mM Hepes, 10 mM glucose, 0.1% BSA, pH7.4). The calcium sensitive dye solution was prepared by adding 50 μl 5% pluronic F-127 in DMSO (Molecular Probes) to a vial of fura2-AM (Molecular Probes). After mixing, 20 μl of the fura2-AM solution was added to 10 ml WASH. 1.5 ml was then added to cells, which were then incubated at 37° C. for 30 minutes. The plate was washed three times with WASH. 1 ml WASH was added and stored in dark. Agonists and antagonists were prepared in WASH at 5× their required assay concentrations. The reagents and assay temperature was kept at 37° C. For the transiently transfected cells, the YFP reporter DNA fluorescence (490 nm excitation) was used to identify the transfected cells. Cells were initially imaged in 400 μl WASH (or 300 μl WASH plus 100 μl antagonist e.g. capsazepine). After approximately 1 min, 100 μl agonist (e.g. capsaicin, anadamide or resiniferatoxin) at 5× the desired concentration was added to give final 1× concentration. […]

[3] = 1 μM CPZ against 1 μM capsaicin, holding potential −60 mV

T2 sequence (Q8NER1 whole entry M315I/T469I, the tested form may be a part): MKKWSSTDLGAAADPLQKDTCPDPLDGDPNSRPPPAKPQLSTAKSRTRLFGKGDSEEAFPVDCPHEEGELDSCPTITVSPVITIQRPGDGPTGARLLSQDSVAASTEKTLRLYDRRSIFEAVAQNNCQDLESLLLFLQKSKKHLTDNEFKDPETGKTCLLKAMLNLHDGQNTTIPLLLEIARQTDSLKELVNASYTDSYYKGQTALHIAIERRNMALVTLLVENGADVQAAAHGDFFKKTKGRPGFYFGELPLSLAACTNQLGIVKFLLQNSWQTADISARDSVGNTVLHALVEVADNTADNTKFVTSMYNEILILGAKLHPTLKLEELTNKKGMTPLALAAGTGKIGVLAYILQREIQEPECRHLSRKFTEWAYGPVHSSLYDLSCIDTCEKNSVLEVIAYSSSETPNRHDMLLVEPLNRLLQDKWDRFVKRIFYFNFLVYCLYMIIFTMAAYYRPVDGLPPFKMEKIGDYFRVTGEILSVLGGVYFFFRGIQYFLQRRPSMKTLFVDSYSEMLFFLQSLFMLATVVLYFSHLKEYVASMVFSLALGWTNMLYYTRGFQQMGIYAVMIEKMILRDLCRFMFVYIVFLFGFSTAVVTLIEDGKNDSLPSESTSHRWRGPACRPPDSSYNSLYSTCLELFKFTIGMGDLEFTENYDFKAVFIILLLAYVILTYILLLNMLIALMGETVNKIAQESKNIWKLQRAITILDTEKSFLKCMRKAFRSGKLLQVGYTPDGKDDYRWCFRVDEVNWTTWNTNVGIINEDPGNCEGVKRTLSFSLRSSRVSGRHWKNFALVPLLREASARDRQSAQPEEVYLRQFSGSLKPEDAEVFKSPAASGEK
T1 sequence (O35433 whole entry): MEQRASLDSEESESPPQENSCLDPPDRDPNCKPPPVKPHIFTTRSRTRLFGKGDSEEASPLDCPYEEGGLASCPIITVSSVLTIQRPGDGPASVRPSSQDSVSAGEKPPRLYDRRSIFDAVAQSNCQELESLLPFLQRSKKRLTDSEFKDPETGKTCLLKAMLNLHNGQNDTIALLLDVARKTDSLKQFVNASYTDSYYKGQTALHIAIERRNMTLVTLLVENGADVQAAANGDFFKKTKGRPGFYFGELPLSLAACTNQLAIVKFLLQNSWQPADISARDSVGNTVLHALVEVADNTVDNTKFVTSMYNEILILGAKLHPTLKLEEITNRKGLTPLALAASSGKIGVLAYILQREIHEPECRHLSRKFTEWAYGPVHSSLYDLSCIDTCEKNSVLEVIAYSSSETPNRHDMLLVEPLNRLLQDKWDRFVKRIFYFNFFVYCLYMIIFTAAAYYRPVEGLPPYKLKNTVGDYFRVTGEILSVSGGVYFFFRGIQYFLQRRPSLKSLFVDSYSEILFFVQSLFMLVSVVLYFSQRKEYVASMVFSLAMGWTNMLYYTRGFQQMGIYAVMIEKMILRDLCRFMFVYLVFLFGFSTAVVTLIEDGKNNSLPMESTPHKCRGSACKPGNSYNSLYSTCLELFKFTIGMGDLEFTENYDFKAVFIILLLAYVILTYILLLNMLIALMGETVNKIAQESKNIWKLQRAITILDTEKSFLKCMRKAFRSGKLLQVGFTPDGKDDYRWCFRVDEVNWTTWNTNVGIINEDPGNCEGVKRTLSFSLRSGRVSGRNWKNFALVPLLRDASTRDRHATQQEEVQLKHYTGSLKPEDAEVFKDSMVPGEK

Structure (SMILES) | antagonism of the capsaicin VR1 response (FLIPR peak heights) (rat VR1; cells pre-incubated in CPZ 15 minutes at room temperature) | blockade of capsaicin-evoked inward current (hVR1 [1]; [3]) | reversibility of blockade (hVR1 [1]; [3]) | blockade of capsaicin-evoked current in voltage ramps (hVR1 [1]; 1 μM CPZ against 1 μM capsaicin, voltage ramps −100 to +70 mV) | recovery after blockade in voltage ramps (hVR1 [1]; 1 μM CPZ, especially inward currents evoked by negative potentials) | FLIPR trace after agonist addition (fluorescence change) (rat VR1; HEK293 stably expressing rVR1, monitored 70 seconds after addition) | current-voltage relationship (hVR1 [1]; 1 μM capsaicin, voltage ramps −100 to +70 mV) | reduction of current by the 6th addition (desensitisation, rundown) (hVR1 [1]; capsaicin 1 μM added at 2 min intervals for about 40 s, 2 mM external calcium, current at +65 mV) | size of capsaicin-evoked current when external calcium replaced (hVR1 [1]; capsaicin 1 μM, external calcium replaced with 5 mM EGTA) | current evoked by application of capsaicin (hVR1 [1]; capsaicin 1 μM, membrane held at −60 mV, HEK293T transiently expressing human VR1) | calcium influx response after addition of agonist (hVR1 [2])
Oc1cc2c(cc1O)CN(C(=S)NCCc1ccc(Cl)cc1)CCC2 [CPZ, capsazepine] | peak heights are reduced | abolished | partially reversible | completely blocked the current | only partial recovery was observed | – | – | – | – | – | –
COc1cc(CNC(=O)CCCC/C=C/C(C)C)ccc1O [capsaicin] | – | – | – | – | – | Peaks indicate capsaicin-gated calcium influx | substantial outward rectification | about 4 fold | increased dramatically | produces an inward current | stimulated to influx calcium
